Data reported in patent US9681664B2, “Macrocyclic picolinamides as fungicides” (Dow Agrosciences LLC, priority 2012, dated 2017).
Read-outs that look alike come from different tables or passages of the source.

Columns and labels:
Format in all cases: in vivo
Cercospora beticola = test: Leaf spot of sugar beets (CERCBE) disease control; settings: 24 h, 1 Day Protectant, high volume, read-out: Disease Control CERCBE 1 DP
Procedure: Technical grades of materials were dissolved in acetone, which were then mixed with nine volumes of water containing 110 ppm Triton X-100. The fungicide solutions were applied onto wheat seedlings using an automated booth sprayer to run-off. All sprayed plants were allowed to air dry prior to further handling. All fungicides were evaluated using the aforementioned method for their activity vs. all target diseases. Wheat leaf blotch and brown rust activity were also evaluated using track spray applications, in which case the fungicides were formulated as EC formulations, containing 0.1% Trycol 5941 in the spray solutions. Sugar beet plants (variety HH88) were grown in soil-less Metro mix and trimmed regularly to maintain a uniform plant size prior to test. Plants were inoculated with a spore suspension 24 hr after fungicide treatments. Inoculated plants were kept in a dew chamber at 22° C. for 48 hr then incubated in a greenhouse set at 24° C. under a clear plastic hood with bottom ventilation until disease symptoms were fully expressed. Fungicide formulation, application and disease assessment on the sprayed leaves followed the procedures as described in the Example A.

Alternaria solani = test: Tomato early blight (ALTESO) disease control; settings: 24 h, 1 Day Protectant, high volume, read-out: Disease Control ALTESO 1 DP
Procedure: Technical grades of materials were dissolved in acetone, which were then mixed with nine volumes of water containing 110 ppm Triton X-100. The fungicide solutions were applied onto wheat seedlings using an automated booth sprayer to run-off. All sprayed plants were allowed to air dry prior to further handling. All fungicides were evaluated using the aforementioned method for their activity vs. all target diseases. Wheat leaf blotch and brown rust activity were also evaluated using track spray applications, in which case the fungicides were formulated as EC formulations, containing 0.1% Trycol 5941 in the spray solutions. Tomato plants (variety Outdoor girl) were propagated in soil-less Metro mix, with each pot having one plant, and used when 12 to 14 days old. Test plants were inoculated with an aqueous spore suspension of Alternaria solani 24 hr after fungicide treatments. After inoculation the plants were kept in 100% relative humidity (one day in a dark dew chamber followed by two to three days in a lighted dew chamber at 20° C.) to permit spores to germinate and infect the leaf. The plants were then transferred to a growth room at 22° C. for disease to develop. Fungicide formulation, application and disease assessment on the sprayed leaves followed the procedures as described in the Example A.

Phakopsora pachyrhizi = test: Asian soybean rust (PHAKPA) disease control; settings: topical, high volume
Procedure: Technical grades of materials were dissolved in acetone, which were then mixed with nine volumes of water containing 0.011% Tween 20. The fungicide solutions were applied onto soybean seedlings using an automated booth sprayer to run-off. All sprayed plants were allowed to air dry prior to further handling.
Soybean plants (variety Williams 82) were grown in soil-less Metro mix, with one plant per pot. Two weeks old seedlings were used for testing. Plants were inoculated either 3 days prior to or 1 day after fungicide treatments. Plants were incubated for 24 h in a dark dew room at 22° C. and 100% RH then transferred to a growth room at 23° C. for disease to develop. Disease severity was assessed on the sprayed leaves.

[1] = tested on: Mycosphaerella graminicola; Anamorph: Septoria tritici; test: Leaf blotch of wheat (SEPTTR) disease control on wheat seedlings; settings: Zymoseptoria tritici, High volume application, 100 ppm
Outline: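 Wheat seedlings (Yuma, first leaf emerged) sprayed to run-off with compound in acetone/water with 110 ppm Triton X-100, or track-sprayed as EC with 0.1% Trycol 5941. Septoria tritici spores inoculated before or after treatment. Dew chambers, then 20 °C greenhouse. Percent disease control derived from severity (0–100%) relative to untreated plants.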

[2] = tested on: Magnaporthe grisea; Anamorph: Pyricularia oryzae; test: whole plant or invertebrate; settings: 24 h, read-out: PYRIOR 1 DP disease control
Rhyncosporium secalis = test: Barley scald (RHYNSE) disease control; settings: 24 h, High volume application, 1 Day Protectant, read-out: RHYNSE 1 DP disease control
Procedure: (§1) Technical grades of materials were dissolved in acetone, which were then mixed with nine volumes of water containing 110 ppm Triton X-100. The fungicide solutions were applied onto wheat seedlings using an automated booth sprayer to run-off. All sprayed plants were allowed to air dry prior to further handling. All fungicides were evaluated using the aforementioned method for their activity vs. all target diseases. Wheat leaf blotch and brown rust activity were also evaluated using track spray applications, in which case the fungicides were formulated as EC formulations, containing 0.1% Trycol 5941 in the spray solutions. Barley seedlings (variety Harrington) were propagated in soil-less Metro mix, with each pot having 8 to 12 plants, and used in the test when first leaf was fully emerged. Test plants were inoculated by an aqueous spore suspension of Rhyncosporium secalis 24 hr after fungicide treatments. After inoculation the plants were kept in a dew room at 20° C. with 100% relative humidity for 48 hr. The plants were then transferred to a greenhouse set at 20° C. for disease to develop. Fungicide formulation, application and disease assessment on the sprayed leaves followed the procedures as described in the Example A.

[3] = tested on: Blumeria graminis f. sp. hordei; Synonym: Erysiphe graminis f. sp. hordei; test: Barley powdery mildew (ERYSGH) disease control; settings: 24 h, 1 Day Protectant, high volume, read-out: Disease Control ERYSGH 1 DP
Procedure: as §1, with “dusting with infected stock plants” for “an aqueous spore suspension of Rhyncosporium secalis”, “in” for “in a dew room at 20° C. with 100% relative humidity for 48 hr. The plants were then transferred to”

[4] = 24 h, 1 Day Protectant, read-out: Disease Control PHAKPA 1DP
[5] = 72 h, 3 Day Curative, read-out: Disease Control PHAKPA 3DC
[6] = 24 h, 1 Day Protectant, read-out: SEPTTR 1DP disease control
[7] = 72 h, 3 Day Curative, read-out: SEPTTR 3DC disease control

COc1ccnc(C(=O)N[C@H]2CCC[C@H](Oc3ccccc3)[C@@H](Oc3ccccc3)[C@H](C)OC2=O)c1OCOC(C)=O [F20]
0 to 80%: pest or weed control at 100 ppm (Alternaria solani) | pest or weed control at 100 ppm [3]
80 to 100%: pest or weed control at 100 ppm (Cercospora beticola) | pest or weed control at 25 ppm (Phakopsora pachyrhizi; [4]) | pest or weed control at 25 ppm (Phakopsora pachyrhizi; [5]) | pest or weed control at 100 ppm [1, 6] | pest or weed control at 100 ppm [1, 7] | pest or weed control at 100 ppm [2] | pest or weed control at 100 ppm (Rhyncosporium secalis)

COc1ccnc(C(=O)N[C@H]2CCC[C@H](OCC(C)C)[C@@H](Oc3ccccc3)[C@H](C)OC2=O)c1OCOC(C)=O [F26]
80 to 100%: pest or weed control at 100 ppm (Cercospora beticola) | pest or weed control at 25 ppm (Phakopsora pachyrhizi; [4]) | pest or weed control at 25 ppm (Phakopsora pachyrhizi; [5]) | pest or weed control at 100 ppm [1, 6] | pest or weed control at 100 ppm [1, 7]

COc1ccnc(C(=O)N[C@H]2CCC[C@H](OCC(C)C)[C@@H](OCC(C)C)[C@H](C)OC2=O)c1OCOC(C)=O [F29]
80 to 100%: pest or weed control at 100 ppm (Cercospora beticola) | pest or weed control at 100 ppm (Alternaria solani) | pest or weed control at 25 ppm (Phakopsora pachyrhizi; [4]) | pest or weed control at 100 ppm [1, 6] | pest or weed control at 100 ppm [1, 7] | pest or weed control at 100 ppm [2] | pest or weed control at 100 ppm [3]

COc1ccnc(C(=O)N[C@H]2CCC[C@H](OCc3ccccc3)[C@@H](OCc3ccccc3)[C@H](C)OC2=O)c1OCOC(C)=O [F30]
80 to 100%: pest or weed control at 25 ppm (Phakopsora pachyrhizi; [4]) | pest or weed control at 100 ppm [1, 6] | pest or weed control at 100 ppm [2]
0 to 80%: pest or weed control at 100 ppm (Cercospora beticola) | pest or weed control at 100 ppm (Alternaria solani) | pest or weed control at 25 ppm (Phakopsora pachyrhizi; [5]) | pest or weed control at 100 ppm [1, 7] | pest or weed control at 100 ppm [3]

COc1ccnc(C(=O)N[C@H]2CCC[C@H](OCc3ccccc3)[C@@H](Oc3ccccc3)[C@H](C)OC2=O)c1OCOC(C)=O [F31]
0 to 80%: pest or weed control at 100 ppm (Alternaria solani) | pest or weed control at 100 ppm [3]
80 to 100%: pest or weed control at 100 ppm (Cercospora beticola) | pest or weed control at 100 ppm [1, 6] | pest or weed control at 100 ppm [1, 7] | pest or weed control at 100 ppm [2]

COc1ccnc(C(=O)N[C@H]2CCC[C@H](OCC(C)C)[C@@H](Oc3ccccc3)[C@H](C)OC2=O)c1OCOC(=O)C(C)C [F34]
0 to 80%: pest or weed control at 100 ppm (Alternaria solani) | pest or weed control at 100 ppm [3]
80 to 100%: pest or weed control at 100 ppm (Cercospora beticola) | pest or weed control at 25 ppm (Phakopsora pachyrhizi; [4]) | pest or weed control at 25 ppm (Phakopsora pachyrhizi; [5]) | pest or weed control at 100 ppm [1, 6] | pest or weed control at 100 ppm [1, 7] | pest or weed control at 100 ppm [2]

COc1ccnc(C(=O)N[C@H]2CCC[C@H](Oc3ccccc3)[C@@H](OCC(C)C)[C@H](C)OC2=O)c1OCOC(=O)C(C)C [F35]
80 to 100%: pest or weed control at 100 ppm (Cercospora beticola) | pest or weed control at 100 ppm (Alternaria solani) | pest or weed control at 25 ppm (Phakopsora pachyrhizi; [4]) | pest or weed control at 100 ppm [1, 6] | pest or weed control at 100 ppm [1, 7] | pest or weed control at 100 ppm [2] | pest or weed control at 100 ppm [3]

COc1ccnc(C(=O)N[C@H]2CCC[C@H](Oc3ccccc3)[C@@H](Oc3ccccc3)[C@H](C)OC2=O)c1OCOC(=O)C(C)C [F36]
0 to 80%: pest or weed control at 100 ppm [3]
80 to 100%: pest or weed control at 100 ppm (Cercospora beticola) | pest or weed control at 100 ppm (Alternaria solani) | pest or weed control at 25 ppm (Phakopsora pachyrhizi; [4]) | pest or weed control at 25 ppm (Phakopsora pachyrhizi; [5]) | pest or weed control at 100 ppm [1, 6] | pest or weed control at 100 ppm [1, 7] | pest or weed control at 100 ppm [2]

COc1ccnc(C(=O)N[C@H]2CCC[C@H](OCC(C)C)[C@@H](OCC(C)C)[C@H](C)OC2=O)c1OCOC(=O)C(C)C [F37]
80 to 100%: pest or weed control at 100 ppm (Cercospora beticola) | pest or weed control at 100 ppm (Alternaria solani) | pest or weed control at 25 ppm (Phakopsora pachyrhizi; [4]) | pest or weed control at 100 ppm [1, 6] | pest or weed control at 100 ppm [1, 7] | pest or weed control at 100 ppm [2] | pest or weed control at 100 ppm [3]

COc1ccnc(C(=O)N[C@H]2CCC[C@H](OCC(C)C)[C@@H](OC3CCCC3)[C@H](C)OC2=O)c1OCOC(=O)C(C)C [F38]
80 to 100%: pest or weed control at 100 ppm (Cercospora beticola) | pest or weed control at 100 ppm (Alternaria solani) | pest or weed control at 25 ppm (Phakopsora pachyrhizi; [4]) | pest or weed control at 25 ppm (Phakopsora pachyrhizi; [5]) | pest or weed control at 100 ppm [1, 6] | pest or weed control at 100 ppm [1, 7] | pest or weed control at 100 ppm [2] | pest or weed control at 100 ppm [3]

COCCC(=O)Oc1c(OC)ccnc1C(=O)N[C@H]1CCC[C@H](Oc2ccccc2)[C@@H](OCCCc2ccccc2)[C@H](C)OC1=O [F132]
0 to 80%: pest or weed control at 100 ppm (Cercospora beticola) | pest or weed control at 100 ppm [2] | pest or weed control at 100 ppm (Rhyncosporium secalis) | pest or weed control at 100 ppm [3]
80 to 100%: pest or weed control at 100 ppm (Alternaria solani) | pest or weed control at 100 ppm [1, 6] | pest or weed control at 100 ppm [1, 7]

COc1ccnc(C(=O)N[C@H]2CCC[C@H](OCCCc3ccccc3)[C@@H](Oc3ccccc3)[C@H](C)OC2=O)c1OC(C)=O [F134]
0 to 80%: pest or weed control at 100 ppm (Alternaria solani) | pest or weed control at 100 ppm [3]
80 to 100%: pest or weed control at 100 ppm (Cercospora beticola) | pest or weed control at 100 ppm [1, 6] | pest or weed control at 100 ppm [1, 7] | pest or weed control at 100 ppm [2] | pest or weed control at 100 ppm (Rhyncosporium secalis)

COc1ccc(O[C@H]2CCC[C@H](NC(=O)c3nccc(OC)c3OCOC(=O)C(C)C)C(=O)O[C@@H](C)[C@@H]2OC2CCCC2)cc1 [F169]
0 to 80%: pest or weed control at 100 ppm [3]
80 to 100%: pest or weed control at 100 ppm (Cercospora beticola) | pest or weed control at 100 ppm (Alternaria solani) | pest or weed control at 100 ppm [1, 6] | pest or weed control at 100 ppm [1, 7] | pest or weed control at 100 ppm [2] | pest or weed control at 100 ppm (Rhyncosporium secalis)

COc1ccnc(C(=O)N[C@H]2CCC[C@H](OCCCC(F)(F)F)[C@@H](OC3CCCC3)[C@H](C)OC2=O)c1OCOC(=O)C(C)C [F171]
0 to 80%: pest or weed control at 100 ppm [3]
80 to 100%: pest or weed control at 100 ppm (Cercospora beticola) | pest or weed control at 100 ppm (Alternaria solani) | pest or weed control at 100 ppm [1, 6] | pest or weed control at 100 ppm [1, 7] | pest or weed control at 100 ppm [2] | pest or weed control at 100 ppm (Rhyncosporium secalis)

COc1ccnc(C(=O)N[C@H]2CCC[C@H](OCCCC(F)(F)F)[C@@H](OC3CCCC3)[C@H](C)OC2=O)c1OC(C)=O [F173]
0 to 80%: pest or weed control at 100 ppm [3]
80 to 100%: pest or weed control at 100 ppm (Cercospora beticola) | pest or weed control at 100 ppm (Alternaria solani) | pest or weed control at 100 ppm [1, 6] | pest or weed control at 100 ppm [1, 7] | pest or weed control at 100 ppm [2] | pest or weed control at 100 ppm (Rhyncosporium secalis)
